We go through one molecule from patent publication US11192849B2, “Compounds, compositions, and methods for modulating ferroptosis and treating excitotoxic disorders” (THE TRUSTEES OF COLUMBIA UNIVERSITY IN THE CITY OF NEW YORK, priority 2013, dated 2021).

The subject of assay [1] is rat organotypic hippocampal slice culture (OHSC). Put plainly: Glutamate excitotoxic injury in organotypic hippocampal slice cultures (PI uptake). In kind it is cell-based. The settings on record: 5 mM L-glutamate 3 hours; Fer-1 2 μM, CPX 5 μM, MK-801 10 μM; 24 hours. On the procedure: OHSCs were cultured as previously described (Morrison et al., 2002) with approval from Columbia University's Institutional Animal Care and Use Committee (IACUC). Briefly, Sprague Dawley rat pups (P8-P10) were rapidly decapitated, and the hippocampus placed in ice-cold Gey's balanced salt solution (Sigma). 400 μm thick sections were cut using a Mcllwain tissue chopper and immediately plated on Millicell cell culture inserts (Millipore, Billerica, Mass.) in Neurobasal (Invitrogen) media supplemented with B27 (1×, Invitrogen), GlutaMAX (1 mM, Invitrogen), and D-glucose (4.5 mg/mL, Sigma) at 37° C. and 5% CO2. After 2 days in vitro (DIV), the media was changed to medium containing serum comprised of 50% DMEM (Sigma), 25% heat-inactivated horse serum (Sigma), 25% Hank's balanced salt solution (Sigma), GlutaMAX (1 mM, Invitrogen), and D-glucose (4.5 mg/mL, Sigma). Medium was changed every 2-3 days.
After 10-14 DIV, OBSCs were exposed to an excitotoxic injury consisting of a 3 hour exposure to 5 mM L-glutamate in SFM (Morrison et al., 2002). […] After the 3 hour exposure, the cultures were placed in fresh serum free media (SFM) containing 75% DMEM, 25% Hank's balanced salt solution, GlutaMAX (1 mM), D-glucose (4.5 mg/mL) until cell death was quantified at 24 hours. […]
Quantification of cell death has been described previously (Cater et al., 2007; Morrison et al., 2002). […] Percentage cell death was expressed as the number of pixels in the ROI above a threshold in the PI fluorescent image divided by the total number of pixels in the ROI.
OHSCs were treated with a lethal excitotoxic stimulus (5 mM L-glutamate, 3 hours) that mimics the consequences of stroke and neurodegenerative disease (Morrison et al., 2002; Sundstrom et al., 2005) (FIG. 5A). […] The effects of these compound treatments on propidium iodide (PI) uptake were analyzed, as an indicator of cell death, 24 hours following the end of glutamate treatment, in 3 defined regions of the OHSCs: the dentate gyrus (DG), the CA1 and the CA3 fields of the hippocampus.

The test system of another assay is mice, LPS-induced shock. Put plainly: LPS-induced lethal shock. In kind it is in vivo, mouse. The following applies: Fer-1 5 mg/kg i.p. 30 min before LPS. On the procedure:
Mice were injected intraperitoneally (i.p.) with 15 mg/kg Escherichia coli O111:B4 LPS (Sigma-Aldrich). Mice were pretreated by an i.p. injection of 5 mg/kg ethyl 3-amino-4-(cyclohexylamino)benzoate (Fer-1; Matrix Scientific), 10 mg/kg [5-((7-Cl-1H-indol-3-yl)methyl)-3-methylimidazolidine2,4-dione] (Nec-1s; synthesized in house), a combination of Fer-1 and Nec-1s, or vehicle (1% DMSO in PBS) 30 min before the LPS challenge. Rectal body temperature and survival rates were monitored daily up to 96 h. Experiments were approved by the animal ethics committee of Ghent University.

For a further assay, the system named is ERK phosphorylation. Briefly: ERK phosphorylation Western blot in HT-1080 cells. In kind it is cell-based, human. The protocol: Cells were trypsinized, pelleted, and washed once in PBS. Cells were lysed for 20 minutes in buffer containing: 50 mM HEPES pH 7.4, 40 mM NaCl, 2 mM EDTA, 0.5% Triton X-100, 1.5 mM sodium orthovanadate, 50 mM NaF, 10 mM sodium pyrophosphate, 10 mM sodium ß-glycerophosphate, and protease inhibitor tablet (Roche, Nutley, N.J.). Unlysed cells and debris were pelleted for 10 minutes at 10,000 rpm in a benchtop microcentrifuge at 4° C., and the supernatant was removed and mixed with 5×SDS loading buffer. Samples were separated by SDS-polyacrylamide gel electrophoresis. Western transfer was performed using the iBlot system (Invitrogen). Membrane was blocked for 1 hour in Licor Odyssey Blocking Buffer (LI-COR) and incubated in primary antibody overnight at 4° C. Following three 5-minute washes in Tris-buffered saline (pH 7.4) with 1% Tween-20 (TBS-T), membrane was incubated with secondary antibodies for 45 minutes in the dark. The membrane was washed again in TBST for three 5-minute washes with protection from light and scanned using the Odyssey Imaging System (LI-COR). Antibodies used were as follows: rabbit anti-phospho p42/44 MAPK (Cell Signaling Technology, #9101) and rabbit anti-p42/44 MAPK (Cell Signaling Technology, #9102). The secondary antibody was IR dye 800CW goat anti-rabbit IgG (LI-COR).
A general note: A western blot detects proteins with antibodies after separation by electrophoresis.

With `CCOC(=O)c1ccc(NC2CCCCC2)c(N)c1` [SRS8-28 (Fer-1), ethyl 3-amino-4-(cyclohexylamino)benzoate], the “glutamate-induced cell death (PI uptake) in DG, CA1, CA3” value in assay [1] is “attenuated significantly”. Besides, the “temperature drop and survival after LPS” value in the assay on mice, LPS-induced shock is on record as “no difference compared with vehicle-treated mice was evident”. In the assay with ERK phosphorylation, the ERK phosphorylation result is “did not inhibit ERK phosphorylation”.
